From publication PMC5159840, “A Clickable Analogue of Ketamine Retains NMDA Receptor Activity, Psychoactivity, and Accumulates in Neurons” (Scientific Reports, 2016)

Key:
NMDA receptor (NMDAR) [1] = test system: T1, NMDA receptor (NMDAR); experiment: whole-cell patch clamp of NMDA-evoked currents, concentration-response at -70 mV; also NMDAR EPSCs; format: cell-based, Rattus norvegicus
T1 construct: gene Grin1; native receptor in dissociated cultures of rat hippocampal neurons

NMDA receptor (NMDAR) [2] = test system: T1, NMDA receptor (NMDAR); experiment: whole-cell patch clamp of NMDA-evoked currents, concentration-response at -70 mV; format: cell-based, Rattus norvegicus

Compound `C#CCCCNC1(c2ccccc2Cl)CCCCC1=O` (racemic) [compound 1, A-NK] has an IC50 (NMDA receptor (NMDAR) [1]) of 1800 nM.
`CNC1(c2ccccc2Cl)CCCCC1=O` (racemic) [ketamine] was tested, and the IC50 (NMDA receptor (NMDAR) [2]) was 400 nM.
In the case of `NC1(c2ccccc2Cl)CCCCC1=O` (racemic) [norketamine], the IC50 (NMDA receptor (NMDAR) [1]) is reported as 2000 nM.
